Target: T1, human IRAK4 (Homo sapiens, UniProt Q9NWZ3)
T1 construct: GST (N); made in house; host or cells: baculovirus-infected Hi5 (BTI-TN-5B1-4) insect cells
T1 sequence (Q9NWZ3 1-460): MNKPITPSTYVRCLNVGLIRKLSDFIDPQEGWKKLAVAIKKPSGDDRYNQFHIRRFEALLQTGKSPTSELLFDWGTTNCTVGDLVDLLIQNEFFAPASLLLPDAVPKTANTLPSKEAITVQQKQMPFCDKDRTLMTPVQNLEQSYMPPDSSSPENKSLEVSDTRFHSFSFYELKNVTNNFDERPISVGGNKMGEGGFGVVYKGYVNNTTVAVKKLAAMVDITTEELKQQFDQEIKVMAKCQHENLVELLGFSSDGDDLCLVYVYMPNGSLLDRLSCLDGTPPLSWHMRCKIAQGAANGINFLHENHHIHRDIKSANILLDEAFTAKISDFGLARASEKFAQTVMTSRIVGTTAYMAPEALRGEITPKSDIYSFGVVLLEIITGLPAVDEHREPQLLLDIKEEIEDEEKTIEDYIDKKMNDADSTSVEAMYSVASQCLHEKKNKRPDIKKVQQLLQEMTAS
Test: Human IRAK4 kinase activity inhibition assay (IRAK4 TR-FRET assay)
Type: biochemical
Conditions: 1 mM ATP, GST-human IRAK4, average or median values
Outline: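 Signal was the 665/620 nm emission ratio from a europium anti-mouse-IgG, anti-phosphoserine antibody and streptavidin-XL665 complex formed over 1 h at 22°C. It was scaled between no-enzyme (100%) and no-compound (0%) wells. Beforehand, compounds (20 µM down to 0.073 nM, 11 points) sat 15 min with roughly 0.2 nM insect-cell-expressed GST-human IRAK4 before phosphorylation of a biotinylated peptide substrate.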

Compound | IC50
O=C1COCCN1C1CN(c2nc(N[C@H]3C[C@@H](O)C3)nc3c2cnn3-c2cccc(C(F)(F)F)c2)C1 [Example I-121, 4-(1-{6-[(cis-3-hydroxycyclobutyl)amino]-1-[3-(trifluoromethyl)phenyl]-1H-pyrazolo[3,4-d]pyrimidin-4-yl}azetidin-3-yl)morpholin-3-one] | 3.65 nM
C[C@]1(O)C[C@H](Nc2nc(N3CC(N4CCOCC4=O)C3)c3cnn(-c4cccc(C(F)(F)F)c4)c3n2)C1 [Example I-122, 4-(1-{6-[(trans-3-hydroxy-3-methylcyclobutyl)amino]-1-[3-(trifluoromethyl)phenyl]-1H-pyrazolo[3,4-d]pyrimidin-4-yl}azetidin-3-yl)morpholin-3-one] | 2.75 nM
CC1(N2CCOCC2)CN(c2nc(N[C@H]3C[C@](C)(O)C3)nc3c2cnn3-c2cccc(C(F)(F)F)c2)C1 [Example I-123, trans-1-methyl-3-({4-[3-methyl-3-(morpholin-4-yl)azetidin-1-yl]-1-[3-(trifluoromethyl)-phenyl]-1H-pyrazolo[3,4-d]pyrimidin-6-yl}amino)cyclobutanol] | 7.98 nM
C[C@]1(O)CCN(c2nc(N[C@H]3C[C@@H](O)C3)nc3c2cnn3-c2cccc(C(F)(F)F)c2)C1 [Example I-124, (3S)-1-(6-{[(1s,3R)-3-hydroxycyclobutyl]amino}-1-[3-(trifluoromethyl)phenyl]-1H-pyrazolo[3,4-d]pyrimidin-4-yl)-3-methylpyrrolidin-3-ol] | 22.5 nM

Further lines, results first:

IC50 | Compound
170 nM | CCC1(O)CN(c2nc(N[C@H]3CCN(C)C3)nc3c2cnn3-c2cccc(S(C)(=O)=O)c2)C1 [Example V-1, 3-ethyl-1-(6-{[(3S)-1-methylpyrrolidin-3-yl]amino}-1-[3-(methylsulfonyl)phenyl]-1H-pyrazolo[3,4-d]pyrimidin-4-yl)azetidin-3-ol]
179 nM | CCC1(O)CN(c2nc(N[C@@H]3CCOC3)nc3c2cnn3-c2cccc(S(C)(=O)=O)c2)C1 [Example V-2, 3-ethyl-1-{1-[3-(methylsulfonyl)phenyl]-6-[(3R)-tetrahydrofuran-3-ylamino]-1H-pyrazolo[3,4-d]pyrimidin-4-yl}azetidin-3-ol]
24.8 nM | O=S1(=O)CC[C@H](Nc2nc(N3CC(N4CCOCC4)C3)c3cnn(-c4cccc(C(F)F)c4)c3n2)C1 [II-3, 1-[3-(difluoromethyl)phenyl]-N-[(3S)-1,1-dioxidotetrahydrothiophen-3-yl]-4-[3-(morpholin-4-yl)azetidin-1-yl]-1H-pyrazolo[3,4-d]pyrimidin-6-amine]
84.9 nM | O=C(O)CC1CN(c2nc(NC3CCS(=O)(=O)CC3)nc3c2cnn3-c2cccc(C(F)F)c2)C1 [II-9, (1-{1-[3-(difluoromethyl)phenyl]-6-[(1,1-dioxidotetrahydro-2H-thiopyran-4-yl)amino]-1H-pyrazolo[3,4-d]pyrimidin-4-yl}azetidin-3-yl)acetic acid]
13.3 nM | CS(=O)(=O)N1CC(Nc2nc(N3CC(N4CCOCC4)C3)c3cnn(-c4cccc(C(F)F)c4)c3n2)C1 [II-13, 1-[3-(difluoromethyl)phenyl]-N-[1-(methylsulfonyl)azetidin-3-yl]-4-[3-(morpholin-4-yl)azetidin-1-yl]-1H-pyrazolo[3,4-d]pyrimidin-6-amine]
45.2 nM | O=S1(=O)CCC(Nc2nc(N3CCC(O)(C(F)(F)F)C3)c3cnn(-c4cccc(C(F)F)c4)c3n2)CC1 (centres unmarked) [II-15, 1-{1-[3-(difluoromethyl)phenyl]-6-[(1,1-dioxidotetrahydro-2H-thiopyran-4-yl)amino]-1H-pyrazolo[3,4-d]pyrimidin-4-yl}-3-(trifluoromethyl)pyrrolidin-3-ol]
45.3 nM | CS(=O)(=O)N1CC(Nc2nc(N3C[C@H](O)[C@@H](F)C3)c3cnn(-c4cccc(C(F)F)c4)c3n2)C1 [II-22, (3S,4S)-1-(1-[3-(difluoromethyl)phenyl]-6-{[1-(methylsulfonyl)azetidin-3-yl]amino}-1H-pyrazolo[3,4-d]pyrimidin-4-yl)-4-fluoropyrrolidin-3-ol]

Reference: patent publication EP3800188A1, “SUBSTITUTED PYRAZOLOPYRIMIDINES AS IRAK4 INHIBITORS” (Bayer AG, priority 2019, dated 2021)
